Values quoted from earlier work in patent publication US12440441B2 (LIQMEDS WORLDWIDE LIMITED, priority 2021, dated 2025).

Assays:
calcium channel = settings: Stopher

CCOC(=O)c1c(COCCN)nc(C)c(C(=O)OC)c1-c1ccccc1Cl [Impurity A, Amlodipine Related Substance A]
calcium antagonist activity relative to amlodipine (calcium channel): does not show any significant calcium antagonist activity

CCOC(=O)C1=C(COCCN)NC(C)=C(C(=O)OC)C1c1ccccc1Cl (stereo not drawn) [Amlodipine besylate, amlodipine besylate]
solubility in ethanol (ethanol): sparingly soluble | solubility in water (water): slightly soluble
